Results as given in patent publication US20230131535A1, “ARYLMETHYLENE AROMATIC COMPOUNDS AS Kv1.3 POTASSIUM SHAKER CHANNEL BLOCKERS” (D. E. Shaw Research, LLC, priority 2019, published 2023).
Read-outs that look alike come from different tables or passages of the source.

Columns and labels:
[1] = target: T1, hERG channel (Homo sapiens, UniProt Q12809); experiment: hERG electrophysiology, automated whole-cell patch clamp (Patchliner); assay type: cell-based; conditions: CHO-K1 cells stably expressing hERG, whole cell current, tail current protocol, read-out: hERG_IC50
T1 construct: expressed in transfected cells
Protocol: Example 68. Evaluation of hERG Activities
This assay is used to evaluate the disclosed compounds' inhibition activities against the hERG channel.
CHO-K1 cells stably expressing hERG were grown in Ham's F-12 Medium with Glutamine containing 10% heat-inactivated FBS, 1% Penicillin/Streptomycin, Hygromycin (100 μg/ml) and G418 (100 μg/ml). Cells were grown in culture flasks at 37° C. in a 5% CO2-humidified incubator.
(§1) The cells were bathed in an extracellular solution containing 140 mM NaCl, 4 mM KCl, 2 mM CaCl2), 1 mM MgCl2, 5 mM Glucose, 10 mM HEPES; pH adjusted to 7.4 with NaOH; 295-305 mOsm. The internal solution contained 50 mM KCl, 10 mM NaCl, 60 mM KF, 20 mM EGTA, 10 mM HEPES; pH adjusted to 7.2 with KOH; 285 mOsm. All compounds were dissolved in DMSO at 30 mM. Compound stock solutions were freshly diluted with external solution to concentrations of 30 nM, 100 nM, 300 nM, 1 μM, 3 μM, 10 μM, 30 μM and 100 μM. The highest content of DMSO (0.3%) was present in 100 μM.
The voltage protocol (see Table 5) was designed to simulate voltage changes during a cardiac action potential with a 300 ms depolarization to +20 mV (analogous to the plateau phase of the cardiac action potential), a repolarization for 300 ms to −50 mV (inducing a tail current) and a final step to the holding potential of −80 mV. The pulse frequency was 0.3 Hz. Control (compound-free) and compound pulse trains for each compound concentration applied contained 70 pulses.
Whole cell current recordings and compound application were enabled by means of an automated patch clamp platform Patchliner (Nanion). EPC 10 patch clamp amplifier (HEKA) along with Patchmaster software (HEKA Elektronik Dr. Schulze GmbH) was used for data acquisition. Data were sampled at 10 kHz without filtering. Increasing compound concentrations were applied consecutively to the same cell without washouts in between.
(§2) AUC and PEAK values were obtained with Patchmaster (HEKA Elektronik Dr. Schulze GmbH). To determine IC50 the last single pulse in the pulse train corresponding to a given compound concentration was used. Obtained AUC and PEAK values in the presence of compound were normalized to control values in the absence of compound. Using Origin (OridinLab), IC50 was derived from data fit to Hill equation: Icompound/Icontrol=(100−A)/(1+([compound]/IC50)nH)+A, where IC50 is the concentration at which current inhibition is half-maximal, [compound] is the applied compound concentration, A is the fraction of current that is not blocked and nH is the Hill coefficient.

[2] = target: T2, Kv1.3 potassium channel (Homo sapiens, UniProt P22001); experiment: Kv1.3 potassium channel blocker activity, automated whole-cell patch clamp (Patchliner); assay type: cell-based; conditions: CHO-K1 cells stably expressing Kv1.3, whole cell current, pulses -90 mV to +40 mV, read-out: Kv1.3_IC50
T2 construct: expressed in transfected cells
Protocol: Example 67. Evaluation of Kv1.3 Potassium Channel Blocker Activities
The assay described below is used to evaluate the disclosed compound's activities as Kv1.3 potassium channel blockers.
CHO-K1 cells stably expressing Kv1.3 were grown in DMEM containing 10% heat-inactivated FBS, 1 mM Sodium Pyruvate, 2 mM L-Glutamine and G418 (500 μg/ml). Cells were grown in culture flasks at 37° C. in a 5% CO2-humidified incubator.
as §1
The currents were evoked by applying 100 ms depolarizing pulses from −90 mV (holding potential) to +40 mV were applied with 0.1 Hz frequency. Control (compound-free) and compound pulse trains for each compound concentration applied contained 20 pulses. 10 second breaks were used between pulse trains (see Table 4 below).
Whole cell current recordings and compound application were enabled by means of an automated patch clamp platform Patchliner (Nanion Technologies GmbH). EPC 10 patch clamp amplifier (HIEKA Elektronik Dr. Schulze GmbH) along with Patchmaster software (HIEKA Elektronik Dr. Schulze GmbH) was used for data acquisition. Data were sampled at 10 kHz without filtering. Passive leak currents were subtracted online using a P/4 procedure (HEKA Elektronik Dr. Schulze GmbH). Increasing compound concentrations were applied consecutively to the same cell without washouts in between. Total compound incubation time before the next pulse train was not longer than 10 seconds. Peak current inhibition was observed during compound equilibration.
as §2, with “AUC and peak values were” for “AUC and PEAK values were”, “To determine IC50, the last” for “To determine IC50 the last”, “AUC and peak values in” for “AUC and PEAK values in”, “where IC50 value is the” for “where IC50 is the”

T2 sequence (P22001 whole entry): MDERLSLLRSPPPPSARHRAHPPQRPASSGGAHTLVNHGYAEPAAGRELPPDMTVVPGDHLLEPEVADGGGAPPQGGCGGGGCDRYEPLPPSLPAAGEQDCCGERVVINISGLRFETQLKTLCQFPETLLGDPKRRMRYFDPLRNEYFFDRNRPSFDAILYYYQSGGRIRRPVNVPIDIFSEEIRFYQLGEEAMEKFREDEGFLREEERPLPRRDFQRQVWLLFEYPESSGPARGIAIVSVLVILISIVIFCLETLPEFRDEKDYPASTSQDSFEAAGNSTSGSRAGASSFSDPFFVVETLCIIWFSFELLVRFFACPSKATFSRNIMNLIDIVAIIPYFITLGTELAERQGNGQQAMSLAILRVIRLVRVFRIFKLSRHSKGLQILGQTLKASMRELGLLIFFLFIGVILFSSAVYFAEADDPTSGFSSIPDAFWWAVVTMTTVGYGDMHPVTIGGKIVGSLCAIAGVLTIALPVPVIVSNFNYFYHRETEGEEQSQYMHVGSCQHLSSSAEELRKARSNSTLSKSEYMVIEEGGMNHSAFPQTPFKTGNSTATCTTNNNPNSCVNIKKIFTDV
T1 sequence (Q12809 whole entry): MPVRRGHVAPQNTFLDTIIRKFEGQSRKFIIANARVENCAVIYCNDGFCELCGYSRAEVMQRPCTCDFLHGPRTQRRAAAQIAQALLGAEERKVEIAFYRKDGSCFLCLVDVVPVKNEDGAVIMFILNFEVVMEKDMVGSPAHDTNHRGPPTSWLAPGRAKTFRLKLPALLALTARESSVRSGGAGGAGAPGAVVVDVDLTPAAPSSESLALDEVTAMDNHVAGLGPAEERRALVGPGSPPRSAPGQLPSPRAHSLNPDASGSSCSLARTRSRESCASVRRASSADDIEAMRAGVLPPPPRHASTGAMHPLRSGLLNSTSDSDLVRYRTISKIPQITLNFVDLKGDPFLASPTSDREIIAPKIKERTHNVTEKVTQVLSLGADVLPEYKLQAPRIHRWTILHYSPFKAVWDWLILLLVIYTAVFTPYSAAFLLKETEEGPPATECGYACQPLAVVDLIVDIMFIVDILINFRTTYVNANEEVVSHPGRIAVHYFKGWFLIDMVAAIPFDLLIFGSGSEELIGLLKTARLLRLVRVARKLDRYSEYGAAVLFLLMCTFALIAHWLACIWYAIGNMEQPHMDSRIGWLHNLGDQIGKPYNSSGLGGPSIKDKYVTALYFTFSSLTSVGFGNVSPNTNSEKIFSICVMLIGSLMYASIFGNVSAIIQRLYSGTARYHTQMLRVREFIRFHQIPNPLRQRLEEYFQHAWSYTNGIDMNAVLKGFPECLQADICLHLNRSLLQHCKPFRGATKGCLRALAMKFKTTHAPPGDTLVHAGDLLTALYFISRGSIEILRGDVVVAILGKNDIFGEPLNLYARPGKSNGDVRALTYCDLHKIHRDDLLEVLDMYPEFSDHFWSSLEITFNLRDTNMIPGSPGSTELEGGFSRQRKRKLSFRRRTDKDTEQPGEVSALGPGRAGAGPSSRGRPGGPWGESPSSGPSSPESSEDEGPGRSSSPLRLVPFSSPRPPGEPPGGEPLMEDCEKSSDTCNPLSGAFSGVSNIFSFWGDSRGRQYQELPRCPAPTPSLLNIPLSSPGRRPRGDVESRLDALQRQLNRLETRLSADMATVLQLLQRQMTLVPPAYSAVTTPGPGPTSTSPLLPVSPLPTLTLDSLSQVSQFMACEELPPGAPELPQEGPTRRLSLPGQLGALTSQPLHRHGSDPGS

SMILES | IC50 ([1]; Table 6) [µM] | IC50 ([2]; Table 6) [µM] | also measured
Cc1cnccc1C(O)c1c(O)ccc(Cl)c1Cl (stereo not drawn) [Compound 39, 3,4-dichloro-2-[hydroxy(3-methylpyridin-4-yl)methyl]phenol] | > 30 | < 1 | –
C[C@@H](NC(=O)[C@H]1CCCNC1)c1c(O)ccc(Cl)c1Cl [Compound 78, (3S)-N-[(1R)-1-(2,3-dichloro-6-hydroxyphenyl)ethyl]piperidine-3-carboxamide] | – | – | IC50 ([1]; Table 7): > 30 µM; IC50 ([2]; Table 7): < 1 µM
O=C(NC(c1ccncc1)c1c(O)ccc(Cl)c1Cl)C1CNC1 (single isomer, unassigned) [Compound 50, N-[(2,3-dichloro-6-hydroxyphenyl)(pyridin-4-yl)methyl]azetidine-3-carboxamide] | > 30 | < 1 | –
Cc1cnccc1C(O)c1c(O)ccc(Cl)c1Cl (single isomer, unassigned) [Compound 46, 3,4-dichloro-2-[hydroxy(3-methylpyridin-4-yl)methyl]phenol] | > 30 | < 1 | –
Nc1cc(C(O)c2c(O)ccc(Cl)c2Cl)ccn1 (single isomer, unassigned) [Compound 45, 2-[(2-aminopyridin-4-yl)(hydroxy)methyl]-3,4-dichlorophenol] | > 30 | < 1 | –
NCc1cc(C(O)c2c(O)ccc(Cl)c2Cl)ccn1 (single isomer, unassigned) [Compound 53, 2-((2-(aminomethyl)pyridin-4-yl)(hydroxy)methyl)-3,4-dichlorophenol] | > 30 | < 1 | –
CC(=O)CC(c1ccncc1)c1c(O)ccc2ccccc12 (stereo not drawn) [Compound 18] | > 30 | < 10 | –
Nc1cc(Cc2cc(Cl)c(Cl)cc2O)ccn1 [Compound 2, 2-[(2-aminopyridin-4-yl)methyl]-4,5-dichlorophenol] | < 30 | < 10 | –
O=C(NC(c1ccncc1)c1c(O)ccc(Cl)c1Cl)C1CNC1 (stereo not drawn) [Compound 42, N-[(2,3-dichloro-6-hydroxyphenyl)(pyridin-4-yl)methyl]azetidine-3-carboxamide] | > 30 | < 1 | –
Oc1ccc(Cl)c(Cl)c1C(O)c1ccncc1 (stereo not drawn) [Compound 29, 3,4-dichloro-2-[hydroxy(pyridin-4-yl)methyl]phenol] | > 30 | < 1 | –
NC(c1ccncc1)c1cc(Cl)c(Cl)cc1O (stereo not drawn) [Compound 6, 2-[amino(pyridin-4-yl)methyl]-4,5-dichlorophenol] | > 30 | < 10 | –
O=C(NC(c1ccncc1)c1c(O)ccc(Cl)c1Cl)C1CNC1 (single isomer, unassigned) [Compound 49, N-[(2,3-dichloro-6-hydroxyphenyl)(pyridin-4-yl)methyl]azetidine-3-carboxamide] | – | < 10 | –
Nc1ccc(Cl)c(Cl)c1C(=O)c1ccncc1 [Compound 62, 3,4-dichloro-2-(pyridine-4-carbonyl)aniline] | – | < 10 | –
NC(c1cn[nH]c1)c1c(O)ccc(Cl)c1Cl (stereo not drawn) [Compound 7, 2-[amino(1H-pyrazol-4-yl)methyl]-3,4-dichlorophenol] | – | < 30 | –
Cc1cnccc1C(O)c1c(O)ccc(Cl)c1Cl (single isomer, unassigned) [Compound 43, 3,4-dichloro-2-[hydroxy(3-methylpyridin-4-yl)methyl]phenol] | – | < 30 | –
CC(C)C(=O)NC(c1ccncc1)c1c(O)ccc(Cl)c1Cl (stereo not drawn) [Compound 69, N-[(2,3-dichloro-6-hydroxyphenyl)(pyridin-4-yl)methyl]-2-methylpropanamide] | – | < 30 | –

SMILES | IC50 ([1]; Table 6) [µM] | IC50 ([2]; Table 6) [µM] | also measured
NCc1cc(C(O)c2c(O)ccc(Cl)c2Cl)ccn1 (single isomer, unassigned) [Compound 47, 2-((2-(aminomethyl)pyridin-4-yl)(hydroxy)methyl)-3,4-dichlorophenol] | – | < 30 | –
N#Cc1cc(C(O)c2c(O)ccc(Cl)c2Cl)ccn1 (stereo not drawn) [Compound 30, 4-[(2,3-dichloro-6-hydroxyphenyl)(hydroxy)methyl]pyridine-2-carbonitrile] | – | < 10 | –
Oc1ccc(Cl)c(Cl)c1C(O)c1cccc2[nH]ccc12 (stereo not drawn) [Compound 51, 3,4-dichloro-2-[hydroxy(1H-indol-4-yl)methyl]phenol] | – | < 10 | –
O=C(N[C@@H](c1ccncc1)c1c(O)ccc(Cl)c1Cl)[C@H]1CCCN1 (single isomer, unassigned) [Compound 67] | – | < 10 | –
COCC(=O)NC(c1ccncc1)c1c(O)ccc(Cl)c1Cl (stereo not drawn) [Compound 63, N-[(2,3-dichloro-6-hydroxyphenyl)(pyridin-4-yl)methyl]-2-methoxyacetamide] | – | < 10 | –
C[C@H](NC(=O)CO)c1c(O)ccc(Cl)c1Cl [Compound 83, N-[(1S)-1-(2,3-dichloro-6-hydroxyphenyl)ethyl]-2-hydroxyacetamide] | – | – | IC50 ([2]; Table 7): < 10 µM
Cc1cc(C(O)c2c(O)ccc(Cl)c2Cl)ccn1 (stereo not drawn) [Compound 35, 3,4-dichloro-2-[hydroxy(2-methylpyridin-4-yl)methyl]phenol] | – | < 10 | –
NC(=O)c1ccc(C(N)c2cc(Cl)c(Cl)cc2O)cc1 (stereo not drawn) [Compound 13, 4-[amino(4,5-dichloro-2-hydroxyphenyl)methyl]benzamide] | – | < 10 | –
C[C@H](NC(=O)[C@@H](O)CO)c1c(O)ccc(Cl)c1Cl [Compound 85, (2S)-N-[(1S)-1-(2,3-dichloro-6-hydroxyphenyl)ethyl]-2,3-dihydroxypropan-amide] | – | – | IC50 ([2]; Table 7): < 10 µM
CN1CC(C(=O)NC(c2ccncc2)c2c(O)ccc(Cl)c2Cl)C1 (single isomer, unassigned) [Compound 75, N-[(2,3-dichloro-6-hydroxyphenyl)(pyridin-4-yl)methyl]-1-methylazetidine-3-carboxamide] | – | < 10 | –
Oc1ccc2ccccc2c1C(O)c1ccncc1 (stereo not drawn) [Compound 32, 1-[hydroxyl(pyridin-4-yl)methyl]naphthalen-2-ol] | – | < 10 | –
Oc1ccc(Cl)c(Cl)c1C(O)c1ccnc(N2CCOCC2)c1 (stereo not drawn) [Compound 58, 3,4-dichloro-2-[hydroxy[2-(morpholin-4-yl)pyridin-4-yl]methyl]phenol] | – | < 10 | –
CN(C(=O)C1CNC1)C(c1ccncc1)c1c(O)ccc(Cl)c1Cl (stereo not drawn) [Compound 71, N-[(2,3-dichloro-6-hydroxyphenyl)(pyridin-4-yl)methyl]-N-methylazetidine-3-carboxamide] | – | < 30 | –
C[C@H](NC(=O)[C@@H]1CCCNC1)c1c(O)ccc(Cl)c1Cl [Compound 81, (3R)-N-[(1S)-1-(2,3-dichloro-6-hydroxyphenyl)ethyl]piperidine-3-carboxamide] | – | – | IC50 ([2]; Table 7): < 1 µM
C[C@H](NC(=O)[C@H]1CCNC1)c1c(O)ccc(Cl)c1Cl [Compound 93, (3S)-N-[(1S)-1-(2,3-dichloro-6-hydroxyphenyl)ethyl]pyrrolidine-3-carboxamide] | – | – | IC50 ([2]; Table 7): < 1 µM
